The experiment concerns the target T1, RSK2 (Homo sapiens, UniProt P51812).
T1 construct: gene RPS6KA3
As to the kind of experiment: in vitro kinase assay with recombinant active RSK2 and ATF1 substrate (Western blot); supported by pull-down of recombinant RSK2 with carnosol-Sepharose 4B beads. It counts as biochemical. (In general: Immunoblotting shows a protein as a band on a membrane.)

Molecules are shown by their SMILES.

T1 sequence (P51812 whole entry): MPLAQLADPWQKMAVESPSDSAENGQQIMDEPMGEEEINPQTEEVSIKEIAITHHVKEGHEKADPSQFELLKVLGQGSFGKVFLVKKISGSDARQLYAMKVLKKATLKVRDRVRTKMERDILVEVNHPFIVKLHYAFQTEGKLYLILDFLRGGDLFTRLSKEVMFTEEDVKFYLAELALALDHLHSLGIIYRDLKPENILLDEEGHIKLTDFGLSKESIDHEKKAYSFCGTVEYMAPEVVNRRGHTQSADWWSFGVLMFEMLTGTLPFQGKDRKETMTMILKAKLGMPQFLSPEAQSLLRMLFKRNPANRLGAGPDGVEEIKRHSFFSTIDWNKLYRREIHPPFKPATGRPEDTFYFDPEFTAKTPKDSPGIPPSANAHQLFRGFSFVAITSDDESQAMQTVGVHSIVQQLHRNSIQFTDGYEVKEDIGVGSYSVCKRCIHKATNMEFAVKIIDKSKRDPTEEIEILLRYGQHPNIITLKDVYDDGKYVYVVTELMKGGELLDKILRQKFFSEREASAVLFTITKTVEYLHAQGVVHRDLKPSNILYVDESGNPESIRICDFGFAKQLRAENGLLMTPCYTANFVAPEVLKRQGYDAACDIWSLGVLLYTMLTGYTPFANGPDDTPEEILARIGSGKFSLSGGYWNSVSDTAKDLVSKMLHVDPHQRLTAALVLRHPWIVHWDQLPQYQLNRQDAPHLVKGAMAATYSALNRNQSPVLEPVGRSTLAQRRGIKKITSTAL

As a reminder, the IC50 is the concentration that inhibits the measured activity by half. As to `CC(C)c1cc2c(c(O)c1O)[C@@]13CCCC(C)(C)[C@@H]1C[C@@H]2OC3=O` [Carnosol], the IC50 is around 5.5 µM.

(Values after article PMC6188138, “Carnosol suppresses patient-derived gastric tumor growth by targeting RSK2” (Oncotarget, 2018).)
